The record followed here is patent US8778958B2, “Synthesis of metabolically stable agents for alcohol and drug abuse” (priority 2008, dated 2014).

Like-named read-outs stand apart in the source and are kept apart here.

Common to all, as to experiment: biochemical
Holding throughout (format): binding

One assay deals with T1, κ-opioid receptor (Homo sapiens, UniProt P41145).
T1 construct: expressed in transfected cells; host or cells: CHO cells
The note with it: read-out: Ki (nM) ± SEM, κ.

The next assay concerns the target T2, μ-opioid receptor (Homo sapiens, UniProt P35372).
T2 construct: expressed in transfected cells; host or cells: CHO cells

The target in the next assay is T3, δ-opioid receptor (Homo sapiens, UniProt P41143).
T3 construct: expressed in transfected cells; host or cells: CHO cells
T3 sequence (P41143 whole entry): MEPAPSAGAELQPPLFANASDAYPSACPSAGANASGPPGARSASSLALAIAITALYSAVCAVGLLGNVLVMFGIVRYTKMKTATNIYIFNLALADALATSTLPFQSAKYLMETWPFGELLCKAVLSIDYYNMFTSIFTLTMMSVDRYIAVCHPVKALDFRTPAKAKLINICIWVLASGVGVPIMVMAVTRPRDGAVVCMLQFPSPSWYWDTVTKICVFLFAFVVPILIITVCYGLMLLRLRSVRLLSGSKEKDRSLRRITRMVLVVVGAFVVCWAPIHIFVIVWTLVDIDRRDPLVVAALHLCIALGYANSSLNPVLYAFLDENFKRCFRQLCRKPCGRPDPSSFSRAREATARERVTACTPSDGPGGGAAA
The note with it: Table 1b; for Ki: N-oxides; for Inhibition of agonist binding, δ: concentration not given.

Where [1] appears, read: Ki (nM) ± SEM, μ, Table 1b, N-oxides.

T2 sequence (P35372 whole entry): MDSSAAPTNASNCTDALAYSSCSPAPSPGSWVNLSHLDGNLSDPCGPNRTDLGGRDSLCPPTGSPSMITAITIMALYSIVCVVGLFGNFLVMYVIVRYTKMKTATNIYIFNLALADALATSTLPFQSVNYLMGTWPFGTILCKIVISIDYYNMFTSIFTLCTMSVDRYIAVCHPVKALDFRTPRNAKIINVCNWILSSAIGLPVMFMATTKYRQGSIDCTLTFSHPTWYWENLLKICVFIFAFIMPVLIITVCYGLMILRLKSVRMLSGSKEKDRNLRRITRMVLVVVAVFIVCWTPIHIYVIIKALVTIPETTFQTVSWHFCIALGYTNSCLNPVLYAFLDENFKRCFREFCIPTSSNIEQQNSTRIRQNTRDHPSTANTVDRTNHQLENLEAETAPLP
T1 sequence (P41145 whole entry): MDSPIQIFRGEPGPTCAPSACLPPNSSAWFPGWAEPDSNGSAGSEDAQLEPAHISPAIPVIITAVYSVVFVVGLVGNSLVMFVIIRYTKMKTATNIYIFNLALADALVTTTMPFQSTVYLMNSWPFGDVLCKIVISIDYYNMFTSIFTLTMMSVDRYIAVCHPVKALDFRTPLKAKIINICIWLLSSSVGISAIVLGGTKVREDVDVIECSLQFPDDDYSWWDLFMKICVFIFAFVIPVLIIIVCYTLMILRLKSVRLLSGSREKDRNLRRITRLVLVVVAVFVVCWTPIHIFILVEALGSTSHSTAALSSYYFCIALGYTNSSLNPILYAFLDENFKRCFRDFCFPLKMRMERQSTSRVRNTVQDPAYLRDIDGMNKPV

Broadly, the Ki is the dissociation constant of the complex between target and ligand, obtained from inhibition or displacement. On to `O=C(Cc1ccccc1)N[C@@H]1CC[C@@]2(O)[C@H]3Cc4ccc(O)c5c4[C@@]2(CC[N+]3([O-])CC2CC2)[C@H]1O5` (stereo partly drawn) [Compound 33, 17-Cyclopropylmethyl-3,14β-dihydroxy-4,5α-epoxy-6β-(phenylacetamido)morphinan-N-oxide], for which the Ki at κ-opioid receptor amounted to 47 ± 4 nM; on μ-opioid receptor (setting [1]), 43 ± 3 nM; on δ-opioid receptor (Ki (nM) ± SEM, δ), 1400 ± 40.5 nM.
For `O=C(N[C@@H]1CC[C@@]2(O)[C@H]3Cc4ccc(O)c5c4[C@@]2(CC[N+]3([O-])CC2CC2)[C@H]1O5)c1cccc(O)c1` (stereo partly drawn) [Compound 34, 17-Cyclopropylmethyl-3,14β-dihydroxy-4,5α-epoxy-6β-[(3′-hydroxy)benzamido]morphinan-N-oxide], in that order: 49 ± 4 nM, 34 ± 2 nM and 1170 ± 101 nM.
As for `O=C(N[C@@H]1CC[C@@]2(O)[C@H]3Cc4ccc(O)c5c4[C@@]2(CC[N+]3([O-])CC2CC2)[C@H]1O5)c1ccc(C(F)(F)F)cc1` (stereo partly drawn) [Compound 22, 17-Cyclopropylmethyl-3,14β-dihydroxy-4,5α-epoxy-6β-[(4′-trifluoromethyl)benzamido]morphinan-N-oxide], the Ki was found to be 1.9 ± 0.11 nM at κ-opioid receptor; 1.4 ± 0.03 nM at μ-opioid receptor (setting [1]); 117 ± 5.18 nM at δ-opioid receptor (Ki (nM) ± SEM, δ).
Take `CN(C(=O)/C=C/c1ccoc1)[C@@H]1CC[C@@]2(O)[C@H]3Cc4ccc(O)c5c4[C@@]2(CC[N+]3([O-])CC2CC2)[C@H]1O5` (relative stereo) [Compound 44, 17-Cyclopropylmethyl-3,14β-dihydroxy-4,5α-epoxy-6β-[N-methyl-trans-3-(3-furyl)acrylamido]morphinan-N-oxide]: the Ki at κ-opioid receptor was 3.9 ± 0.5 nM; at μ-opioid receptor (setting [1]), 65 ± 7.7 nM; at δ-opioid receptor (Ki (nM) ± SEM, δ) it was 2510 ± 231 nM.
In the same order, the values of `COc1ccc(C(=O)N[C@H]2CC[C@@]3(O)[C@H]4Cc5ccc(O)c6c5[C@@]3(CC[N+]4([O-])CC3CC3)[C@H]2O6)cc1OC` (stereo partly drawn) [Compound 41, 17-Cyclopropylmethyl-3,14β-dihydroxy-4,5α-epoxy-6α-[(3′,4′-dimethoxy)benzamido]morphinan-N-oxide] are 30 ± 3 nM, 16 ± 2.7 nM and 51 ± 2.45 nM.
For `O=C(NC1CCC2(O)C3Cc4ccc(O)c5c4C2(CC[N+]3([O-])CC2CC2)C1O5)c1ccc(C(F)(F)F)c(F)c1` (stereo not drawn) [Compound 56, 17-Cyclopropylmethyl-3,14β-dihydroxy-4,5α-epoxy-6β-[(3′-fluoro-4′-trifluoromethyl)benzamido]morphinan-N-oxide], in that order: 3.8 ± 0.3 nM, 8.3 ± 0.3 nM and 352 ± 10 nM.
`O=C(N[C@@H]1CC[C@@]2(O)[C@H]3Cc4ccc(O)c5c4[C@@]2(CC[N+]3([O-])CC2CC2)[C@H]1O5)c1ccc(Br)cc1` (stereo partly drawn) [Compound 63, 17-Cyclopropylmethyl-3,14β-dihydroxy-4,5α-epoxy-6β-[(4′-bromo)benzamido]morphinan-N-oxide]: the Ki amounted to 6.3 ± 0.6 nM on κ-opioid receptor; 7 ± 0.1 nM on μ-opioid receptor (setting [1]); 246 ± 15 nM at δ-opioid receptor (Ki (nM) ± SEM, δ).
In the same order, the values of `O=C(N[C@@H]1CC[C@@]2(O)[C@H]3Cc4ccc(O)c5c4[C@@]2(CC[N+]3([O-])CC2CC2)[C@H]1O5)c1ccc([N+](=O)[O-])cc1` (stereo partly drawn) [Compound 40, 17-Cyclopropylmethyl-3,14β-dihydroxy-4,5α-epoxy-6β-[(4′-nitro)benzamido]morphinan-N-oxide] are 6.7 ± 0.4 nM, 38 ± 6.5 nM and 590 ± 590 nM.
For `O=C(N[C@@H]1CC[C@@]2(O)[C@H]3Cc4ccc(O)c5c4[C@@]2(CC[N+]3([O-])CC2CC2)[C@H]1O5)c1ccc(Cl)cc1` (stereo partly drawn) [Compound 35, 17-Cyclopropylmethyl-3,14β-dihydroxy-4,5α-epoxy-6β-[(4′-chloro)benzamido]morphinan-N-oxide], in that order: 1.8 ± 0.1 nM, 4.7 ± 0.12 nM and 219 ± 7.97 nM.
For “17-Cyclopropylmethyl-3,14-β-dihydroxy-4,5α-epoxy-6α-N-methyl-(3′,4′-dichloro)morphinan-N-oxide [Compound 51]”, the Ki on κ-opioid receptor (Table 1b, N-oxides) came out at 2 ± 0.09 nM; at μ-opioid receptor (read-out: Ki (nM) ± SEM, μ) it was 7.3 ± 0.2 nM; on δ-opioid receptor (read-out: Ki (nM) ± SEM, δ), 120 ± 5 nM.
“17-Cyclopropylmethyl-3,14-β-dihydroxy-4,5α-epoxy-6β-N-methyl-(4′-iodo)morphinan-N-oxide [Compound 62]”: the Ki on κ-opioid receptor (Table 1b, N-oxides) worked out at 224 ± 15.7 nM; at μ-opioid receptor (read-out: Ki (nM) ± SEM, μ), 408 ± 11.5 nM. Further, the “Inhibition of agonist binding, δ” value on δ-opioid receptor is on record as less than 50% inh.
For the molecule `COc1ccc(C(=O)N[C@@H]2CC[C@@]3(O)[C@H]4Cc5ccc(O)c6c5[C@@]3(CC[N+]4([O-])CC3CC3)[C@H]2O6)cc1OC` (stereo partly drawn) [Compound 29, 17-Cyclopropylmethyl-3,14β-dihydroxy-4,5α-epoxy-6β-[(3′,4′-dimethoxy)benzamido]morphinan-N-oxide], the Ki at κ-opioid receptor was 71 ± 4.87 nM; at μ-opioid receptor (setting [1]), 37 ± 2 nM; at δ-opioid receptor (Ki (nM) ± SEM, δ), 621 ± 16.2 nM.
In the same order, the values of `CN(C(=O)c1ccc(Br)cc1)[C@H]1CC[C@@]2(O)[C@H]3Cc4ccc(O)c5c4[C@@]2(CC[N+]3([O-])CC2CC2)[C@H]1O5` (stereo partly drawn) [Compound 26, 17-Cyclopropylmethyl-3,14β-dihydroxy-4,5α-epoxy-6α-N-methyl[(4′-bromo)benzamido]morphinan-N-oxide] are 2.41 ± 0.19 nM, 5.8 ± 0.21 nM and 51 ± 5.8 nM.
In the same order, the values of `O=C(N[C@H]1CC[C@@]2(O)[C@H]3Cc4ccc(O)c5c4[C@@]2(CC[N+]3([O-])CC2CC2)[C@H]1O5)c1ccccc1` (stereo partly drawn) [Compound 37, 17-Cyclopropylmethyl-3,14β-dihydroxy-4,5α-epoxy-6α-(benzamido)morphinan-N-oxide] are 64 ± 10 nM, 37 ± 2.6 nM and 822 ± 124 nM.
Consider `COc1cccc(C(=O)N[C@@H]2CC[C@@]3(O)[C@H]4Cc5ccc(O)c6c5[C@@]3(CC[N+]4([O-])CC3CC3)[C@H]2O6)c1` (stereo partly drawn) [Compound 30, 17-Cyclopropylmethyl-3,14β-dihydroxy-4,5α-epoxy-6β-[(3′-methoxy)benzamido]morphinan-N-oxide], for which the Ki on κ-opioid receptor was 9.7 ± 0.95 nM; on μ-opioid receptor (setting [1]), 16 ± 1 nM; on δ-opioid receptor (Ki (nM) ± SEM, δ), 444 ± 39.1 nM.
For the molecule `O=C(NC1CCC2(O)C3Cc4ccc(O)c5c4C2(CC[N+]3([O-])CC2CC2)C1O5)c1ccc(Cl)c(F)c1` (stereo not drawn) [Compound 59, 17-Cyclopropylmethyl-3,14β-dihydroxy-4,5α-epoxy-6β-[(4′-chloro-3′-fluoro)benzamido]morphinan-N-oxide], the Ki on κ-opioid receptor is 2.5 ± 0.09 nM; on μ-opioid receptor (setting [1]) it was 14.1 ± 0.5 nM; on δ-opioid receptor (Ki (nM) ± SEM, δ), 390 ± 18 nM.
For `N#Cc1cccc(C(=O)N[C@@H]2CC[C@@]3(O)[C@H]4Cc5ccc(O)c6c5[C@@]3(CC[N+]4([O-])CC3CC3)[C@H]2O6)c1` (stereo partly drawn) [Compound 53, 17-Cyclopropylmethyl-3,14β-dihydroxy-4,5α-epoxy-6β-[(3′ cyano)benzamido]morphinan-N-oxide], the Ki at κ-opioid receptor turned out to be 426 ± 21.5 nM; on μ-opioid receptor (setting [1]) it was 117 ± 7.8 nM. Further, the “Inhibition of agonist binding, δ” value on δ-opioid receptor was less than 50% inh.
`CC(C)(C)c1ccc(C(=O)N[C@@H]2CC[C@@]3(O)[C@H]4Cc5ccc(O)c6c5[C@@]3(CC[N+]4([O-])CC3CC3)[C@H]2O6)cc1` (stereo partly drawn) [Compound 23, 17-Cyclopropylmethyl-3,14β-dihydroxy-4,5α-epoxy-6β-[(4′-tert-butyl)benzamido]morphinan-N-oxide]: the Ki at κ-opioid receptor came out at 1.9 ± 0.14 nM; at μ-opioid receptor (setting [1]) it was 1.7 ± 0.07 nM; at δ-opioid receptor (Ki (nM) ± SEM, δ) it was 25 ± 2.38 nM.
Take `CN(C(=O)c1ccc(I)cc1)[C@H]1CC[C@@]2(O)[C@H]3Cc4ccc(O)c5c4[C@@]2(CC[N+]3([O-])CC2CC2)[C@H]1O5` (stereo partly drawn) [Compound 47, 17-Cyclopropylmethyl-3,14-β-dihydroxy-4,5α-epoxy-6α-N-methyl-[(4′-iodo)benzamido]morphinan-N-oxide]: the Ki on κ-opioid receptor amounted to 5.9 ± 0.4 nM; at μ-opioid receptor (setting [1]), 27.6 ± 0.8 nM; at δ-opioid receptor (Ki (nM) ± SEM, δ), 290 ± 17 nM.
For `CN(C(=O)c1ccc(C(C)(C)C)cc1)[C@@H]1CC[C@@]2(O)[C@H]3Cc4ccc(O)c5c4[C@@]2(CC[N+]3([O-])CC2CC2)[C@H]1O5` (stereo partly drawn) [Compound 27, 17-Cyclopropylmethyl-3,14β-dihydroxy-4,5α-epoxy-6β-N-methyl[(4′-tert-butyl)benzamido]morphinan-N-oxide], the Ki on κ-opioid receptor (Table 1b, N-oxides) was determined as 72 ± 12.6 nM; on μ-opioid receptor (read-out: Ki (nM) ± SEM, μ) it was 714 ± 66 nM; on δ-opioid receptor (read-out: Ki (nM) ± SEM, δ), 535 ± 43.8 nM.
As to `CN(C(=O)c1ccc(I)cc1)C1CCC2(O)C3Cc4ccc(O)c5c4C2(CC[N+]3([O-])CC2CC2)C1O5` (stereo not drawn) [Compound 54, 17-Cyclopropylmethyl-3,14-β-dihydroxy-4,5α-epoxy-6β-N-methyl-[(4′-iodo)benzamido]morphinan-N-oxide], the Ki on κ-opioid receptor was 117 ± 10 nM; at μ-opioid receptor (setting [1]) it was 148 ± 9.3 nM; on δ-opioid receptor (Ki (nM) ± SEM, δ), 3060 ± 271 nM.
In the same order, the values of `Cc1ccc(C(=O)N[C@@H]2CC[C@@]3(O)[C@H]4Cc5ccc(O)c6c5[C@@]3(CC[N+]4([O-])CC3CC3)[C@H]2O6)cc1` (stereo partly drawn) [Compound 21, 17-Cyclopropylmethyl-3,14β-dihydroxy-4,5α-epoxy-6β-[(4′-methyl)benzamido]morphinan-N-oxide] are 3.1 ± 0.16 nM, 5.5 ± 0.2 nM and 342 ± 12.6 nM.
`O=C(Cc1cccs1)N[C@@H]1CC[C@@]2(O)[C@H]3Cc4ccc(O)c5c4[C@@]2(CC[N+]3([O-])CC2CC2)[C@H]1O5` (stereo partly drawn) [Compound 25, 17-Cyclopropylmethyl-3,14β-dihydroxy-4,5α-epoxy-6β-[(thiophen-2′-yl)acetamido]morphinan-N-oxide]: the Ki on κ-opioid receptor (Table 1b, N-oxides) amounted to 13 ± 1 nM; on μ-opioid receptor (read-out: Ki (nM) ± SEM, μ) it was 34.8 ± 2.08 nM; at δ-opioid receptor (read-out: Ki (nM) ± SEM, δ), 752 ± 8.91 nM.
Regarding `COc1cccc(C(=O)N[C@@H]2CC[C@@]3(O)[C@H]4Cc5ccc(O)c6c5[C@@]3(CC[N+]4([O-])CC3CC3)[C@H]2O6)c1` (stereo partly drawn) [Compound 42, 17-Cyclopropylmethyl-3,14β-dihydroxy-4,5α-epoxy-6β-[(3′-methoxy)benzamido]morphinan-N-oxide], the Ki is 16 ± 2 nM at κ-opioid receptor; 49 ± 8.6 nM at μ-opioid receptor (setting [1]); 1050 ± 38 nM at δ-opioid receptor (Ki (nM) ± SEM, δ).
